Experimental data: patent US11840686B2, “Modulation of prekallikrein (PKK) expression” (Ionis Pharmaceuticals, Inc., priority 2013, dated 2023)
Strand notation (5' to 3'): a small letter for the sugar, then the base; units joined by * are phosphorothioate-linked, units joined directly phosphodiester-linked; [ ] holds rarer units or linkages, { } end groups; capitals alone tell only the bases. e = 2'-O-(2-methoxyethyl) (MOE); [5mC] = 5-methylcytosine; d = 2'-deoxy (DNA)

Legend:
[1] = system: high molecular weight kininogen (HMWK); test: Western blot quantification of HMWK and HMWK cleavage product by densitometer (Example 14); assay type: in vivo, mouse; details: for Quantification of HMWK by densitometer / Quantification of HMWK cleavage product by densitometer: Western blot of blood samples, basal model
Excerpt: Treatment with PKK antisense oligonucleotide results in stabilization of HMWK. Thus, vascular permeability is reduced in ISIS 482584-treated groups in a dose-dependent manner. […] Thus, reduced HMWK is caused by PKK cleavage of HMWK into cleavage products (including bradykinin and HKa). Data are presented in Intensity Units as measured by densitometer.

[2] = system: thrombus formation; test: FeCl3 induced mesenteric thrombosis model, platelet aggregation and fibrin formation (Example 21); assay type: in vivo, mouse; details: Swiss-Webster mice; for Fibrin formation, fluorescent intensity / Platelet aggregation, fluorescent intensity: 80 mg/kg/wk
Experimental: ISIS 482584 was evaluated in the FeCl3 induced mesenteric thrombosis mouse model.
A group of 6-8 Swiss-Webster mice was treated with 40 mg/kg of ISIS 482584, administered subcutaneously twice a week for 3 weeks (weekly dose of 80 mg/kg). A control group of 6 Swiss-Webster mice was treated with PBS, administered subcutaneously twice a week for 3 weeks. Two days after the last dose of antisense oligonucleotide or PBS, mice from all groups were anesthetized with 75 mg/kg ketamine mixed with 25 mg/kg xylazine, administered by subcutaneous injection.
Rhodamine 6G dye at a dosage of 5 mg/kg was injected subcutaneously to stain platelets. Alexa-647-labeled anti-fibrinogen antibody at a dosage of 1 mg/kg was injected via tail vein injection to stain fibrin. The abdomen was opened by a middle incision. The visceral mesentery was spread on a glass coverslip and the mesenteric arterioles (70-120 μm) were located by observation under a microscope. Thrombus formation was induced by applying of cotton threads (2×0.3 mm) pre-saturated with 6% FeCl3 solution directly on the target vessel. After three minutes of exposure, the thread was removed and the color intensities of both the dyes were recorded by fluorescent microscopy (Olympus FluoView 1000 confocal laser scanning microscope) with appropriate filters for 70 min.
The results for platelet aggregation in the control and treatment groups are presented in Table 83, expressed in arbitrary units (a.u.). […] The results for fibrin formation in the control and treatment groups are presented in Table 84, also expressed in arbitrary units (a.u.).

[3] = system: thrombus formation; test: Stenosis-induced inferior vena cava thrombosis model, thrombi weights (Example 22); assay type: in vivo, mouse; details: BALB/c mice; for Thrombi weight: 24 hrs after stenosis
Experimental: Reduced blood flow and endothelial damage are hallmarks of this model, also known as the St. Tomas model.
Four groups of 6-8 BALB/c mice were treated with 5 mg/kg, 10 mg/kg, 20 mg/kg, or 40 mg/kg of ISIS 482584, administered subcutaneously twice a week for 3 weeks (weekly doses of 10 mg/kg, 20 mg/kg, 40 mg/kg, or 80 mg/kg). A control group of 8 BALB/c mice was treated with PBS, administered subcutaneously twice a week for 3 weeks. Two days after the last dose of antisense oligonucleotide or PBS was administered, mice from all groups were anesthetized with 2.5% inhalant isoflurane. The IVC of the mice was exposed via a midline abdominal incision below the left renal vein, and was separated from the abdominal aorta by blunt dissection. A 6-0 silk tie (Ethicon, UK) was placed behind the blood vessel just below the left renal vein and a metal 4-0 suture (Ethicon, UK) was placed longitudinally over the IVC to tie the silk tie on top. The metal suture was then removed. Two neurovascular surgical clips (Braun Medical Inc, PA) were placed at two separate positions below the ligation for 20 seconds each, after which they were removed. The abdominal cavity contents were then replaced and the abdomen was closed. After 24 hrs, the IVC was exposed and checked for thrombi formation. All thrombi formed were collected and fixed in 10% formalin for 24 hrs.
The thrombi were weighed and the results are presented in Table 85, expressed in milligrams.

[4] = system: human PKK mRNA; test: Antisense inhibition of human PKK mRNA in HepaRG cells, 3,000 nM (Example 1); assay type: cell-based; details: Table 4; HepaRG cells, electroporation with 3,000 nM antisense oligonucleotide, approx. 24 hours; PKK mRNA by RT-PCR (RTS3454), relative to untreated control cells
Summary of the method: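 HepaRG cells, 20,000 per well, were electroporated with 3,000 nM 5-10-5 MOE gapmer (phosphorothioate, 5-methylcytosine). After about 24 h, PKK mRNA was measured by qRT-PCR with primer probe set RTS3454 and normalised to RIBOGREEN total RNA. Values are percent inhibition versus untreated cells.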

## ISIS 482584: 5-10-5 MOE gapmer targeting murine PKK, GGCATATTGGTTTTTGGAAT; SEQ ID NO: 2244 (antisense eG*eG*e[5mC]*eA*eT*dA*dT*dT*dG*dG*dT*dT*dT*dT*dT*eG*eG*eA*eA*eT)
[1]; 10 mg/kg/week
  Quantification of HMWK by densitometer: 507 Intensity Units
  Quantification of HMWK cleavage product by densitometer: 414774 Intensity Units
[1]; 20 mg/kg/week
  Quantification of HMWK by densitometer: 608 Intensity Units
  Quantification of HMWK cleavage product by densitometer: 403360 Intensity Units
[1]; 40 mg/kg/week
  Quantification of HMWK by densitometer: 873 Intensity Units
  Quantification of HMWK cleavage product by densitometer: 388135 Intensity Units
[1]; 80 mg/kg/week
  Quantification of HMWK by densitometer: 7279 Intensity Units
  Quantification of HMWK cleavage product by densitometer: 204482 Intensity Units
[1]; 160 mg/kg/week
  Quantification of HMWK by densitometer: 21358 Intensity Units
  Quantification of HMWK cleavage product by densitometer: 19936 Intensity Units
[1]; vs PBS control, dose-dependent
  HMWK cleavage product: lower HMWK cleavage product
  levels of HMWK: higher levels of HMWK
[2]; time 752 sec
  Fibrin formation, fluorescent intensity: 54 a.u.
  Platelet aggregation, fluorescent intensity: 74 a.u.
[2]; time 1018 sec
  Fibrin formation, fluorescent intensity: 7 a.u.
  Platelet aggregation, fluorescent intensity: 11 a.u.
[2]; time 1284 sec
  Fibrin formation, fluorescent intensity: 1 a.u.
  Platelet aggregation, fluorescent intensity: 7 a.u.
[2]; time 1550 sec
  Fibrin formation, fluorescent intensity: 10 a.u.
  Platelet aggregation, fluorescent intensity: 0 a.u.
[2]; time 1815 sec
  Fibrin formation, fluorescent intensity: 16 a.u.
  Platelet aggregation, fluorescent intensity: 0 a.u.
[2]; time 2081 sec
  Fibrin formation, fluorescent intensity: 15 a.u.
  Platelet aggregation, fluorescent intensity: 0 a.u.
[2]; time 2347 sec
  Fibrin formation, fluorescent intensity: 61 a.u.
  Platelet aggregation, fluorescent intensity: 0 a.u.
[2]; time 2613 sec
  Fibrin formation, fluorescent intensity: 88 a.u.
  Platelet aggregation, fluorescent intensity: 38 a.u.
[2]; time 2879 sec
  Fibrin formation, fluorescent intensity: 141 a.u.
  Platelet aggregation, fluorescent intensity: 148 a.u.
[2]; time 3144 sec
  Fibrin formation, fluorescent intensity: 150 a.u.
  Platelet aggregation, fluorescent intensity: 129 a.u.
[2]; time 3410 sec
  Fibrin formation, fluorescent intensity: 173 a.u.
  Platelet aggregation, fluorescent intensity: 169 a.u.
[2]; time 3676 sec
  Fibrin formation, fluorescent intensity: 160 a.u.
  Platelet aggregation, fluorescent intensity: 131 a.u.
[2]; time 3944 sec
  Fibrin formation, fluorescent intensity: 128 a.u.
  Platelet aggregation, fluorescent intensity: 87 a.u.
[2]; 80 mg/kg/week, vs PBS
  fibrin formation: Fibrin formation was reduced
  platelet aggregation: Platelet aggregation was reduced
[3]; 10 mg/kg/wk sc 3 weeks
  Thrombi weight: 8 mg
[3]; 20 mg/kg/wk sc 3 weeks
  Thrombi weight: 6 mg
[3]; 40 mg/kg/wk sc 3 weeks
  Thrombi weight: 5 mg
[3]; 80 mg/kg/wk sc 3 weeks
  Thrombi weight: 3 mg
[3]; increasing doses 5-40 mg/kg s.c. twice a week for 3 weeks
  thrombus weight: corresponding decrease in thrombus weight

## 531231 (eT*eA*eT*e[5mC]*eA*d[5mC]*dT*dG*dT*dA*d[5mC]*dT*dA*dG*dT*eT*eT*e[5mC]*e[5mC]*eT) [compound 531231]
[4]
  % inhibition: 94%
